This note sets out measurements from patent US20230365592A1 (Agios Pharmaceuticals, Inc., priority 2022, published 2023).

The target of one experiment is T1, human PAH with the R408W mutation (Homo sapiens, UniProt P00439, R408W).
T1 construct: expressed in transfected cells
T1 sequence (P00439 1-452 R408W): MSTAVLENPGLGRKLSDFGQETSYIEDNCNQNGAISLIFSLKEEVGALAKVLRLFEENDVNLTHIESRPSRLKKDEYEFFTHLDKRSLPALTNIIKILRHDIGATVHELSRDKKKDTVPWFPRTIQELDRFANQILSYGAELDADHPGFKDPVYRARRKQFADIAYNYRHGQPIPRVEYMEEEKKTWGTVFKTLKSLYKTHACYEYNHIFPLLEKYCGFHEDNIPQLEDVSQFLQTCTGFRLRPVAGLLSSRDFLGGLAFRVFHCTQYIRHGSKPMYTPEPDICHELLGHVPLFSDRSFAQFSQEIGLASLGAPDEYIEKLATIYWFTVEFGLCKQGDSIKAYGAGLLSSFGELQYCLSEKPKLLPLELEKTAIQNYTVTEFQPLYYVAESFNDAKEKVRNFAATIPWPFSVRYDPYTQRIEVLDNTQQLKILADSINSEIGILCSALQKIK
Put plainly: Cell Based Phenylalanine Flux Assay.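 Further: after compound treatment, cells received sepiapterin plus isotope-labelled Phenylalanine for 4 hours, then labelled Tyrosine in the medium was quantified, 10-point 2-fold dilution series run in duplicate.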 The following applies: A375 cells expressing R408W PAH; 24 hrs with compound, then 20 µM sepiapterin and 800 µM 13C9,15N-Phenylalanine for 4 hours; 13C-Tyrosine by LC-MS; average where tested multiple times; read-out: AC50.
For the compound `FC(F)(F)c1cccc2cc(C3c4nc[nH]c4CCN3c3nnc(-c4cnccn4)o3)nn12` (centres unmarked), the AC50 – broadly, the midpoint of the concentration-response curve, whichever way the signal moves – is 1 to 5 µM. As to `O=C(c1cnc(-c2ncccn2)o1)N1CCc2[nH]cnc2C1c1cc2c(F)cccn2n1` (centres unmarked), the concentration at half-maximal activity (AC50) was greater than 5 µM. Still for that read-out and setting: the value for `Cc1nnc(N2CCc3[nH]cnc3[C@H]2c2cc3c(F)cccn3n2)o1` (single isomer, unassigned) was 1 to 5 µM; that for `O=C(c1cnn2ccccc12)N1CCc2[nH]cnc2C1c1cc2cccc(C(F)(F)F)n2n1` (centres unmarked) was 1 to 5 µM; that for `CC(C)c1nnc(C(=O)N2CCc3[nH]cnc3C2c2cc3cccc(C(F)(F)F)n3n2)o1` (centres unmarked) was 1 to 5 µM. The same measure, in the same setting: the value for `CC(C)(F)c1nnc(C(=O)N2CCc3[nH]cnc3[C@H]2c2cc3cc(C(F)(F)F)ccn3n2)o1` (single isomer, unassigned) was 1 to 5 µM; that for `Cc1cccn2nc(C3c4nc[nH]c4CCN3c3nnc(-c4ccncn4)o3)cc12` (centres unmarked) was 1 to 5 µM. The same measure, in the same setting: the value for `O=C(CCc1nccs1)N1CCc2[nH]cnc2C1c1cc2ccccn2n1` (centres unmarked) was 1 to 5 µM. With `CC(C)(F)c1nnc(N2CCc3[nH]cnc3C2c2cc3c(C4CC4)cccn3n2)o1` (centres unmarked), the AC50 is greater than 5 µM. As to `Cn1ccc(-c2nnc(C(=O)N3CCc4[nH]cnc4C3c3cc4c(OC(F)F)cccn4n3)o2)n1` (centres unmarked), the AC50 fell in the range of 1 to 5 µM. Same read-out and setting: the value for `COCc1ccc2c(C(=O)N3CCc4[nH]cnc4C3c3cc4cccc(C(F)F)n4n3)cnn2c1` (centres unmarked) was 1 to 5 µM; that for `O=C(c1cnc(-c2cnccn2)o1)N1CCc2[nH]cnc2C1c1cc2ccccn2n1` (centres unmarked) was greater than 5 µM. For the compound `O=C(c1cnc(-c2cnccn2)o1)N1CCc2[nH]cnc2C1c1cc2ccccn2n1` (single isomer, unassigned), the AC50 fell in the range of 1 to 5 µM. For `Cc1nc(C(C)O)oc1C(=O)N1CCc2[nH]cnc2C1c1cc2cccc(Cl)n2n1` (centres unmarked), the AC50 is 1 to 5 µM.

On to `Cc1cccc2cc([C@@H]3c4nc[nH]c4CCN3C(=O)c3cnc(C(C)(C)O)o3)nn12` (single isomer, unassigned), for which the AC50 lay within 1 to 5 µM.

The same experiment, now with this note: A375 cells expressing human PAH R408W; 24 hrs compound incubation; 13C-Tyrosine by LC-MS; average where tested multiple times; read-out: AC50.
Take `O=C(c1nnc(-c2ncccc2F)o1)N1CCc2[nH]cnc2[C@@H]1c1cc2c(C3CC3)cccn2n1` [Example 1854, (R)-(4-(4-cyclopropylpyrazolo[1,5-a]pyridin-2-yl)-1,4,6,7-tetrahydro-5H-imidazo[4,5-c]pyridin-5-yl)(5-(3-fluoropyridin-2-yl)-1,3,4-oxadiazol-2-yl)methanone]: the AC50 was greater than 5 µM. On to `Cc1cccn2nc([C@@H]3c4nc[nH]c4CCN3c3nnc(-c4ncccc4F)o3)cc12` [Example 2341, (S)-2-(3-fluoropyridin-2-yl)-5-(4-(4-methylpyrazolo[1,5-a]pyridin-2-yl)-1,4,6,7-tetrahydro-5H-imidazo[4,5-c]pyridin-5-yl)-1,3,4-oxadiazole], for which the AC50 lay in the range of 0.5 to 1 µM.

Take `O=C(c1nnc(-c2ccccn2)s1)N1CCc2[nH]cnc2[C@H]1c1cc2ccccn2n1` [Example 1966, (S)-(4-(pyrazolo[1,5-a]pyridin-2-yl)-1,4,6,7-tetrahydro-5H-imidazo[4,5-c]pyridin-5-yl)(5-(pyridin-2-yl)-1,3,4-thiadiazol-2-yl)methanone]: the AC50 is less than 0.5 µM. Still for that read-out and setting: in the case of `Clc1cccn2nc([C@H]3c4nc[nH]c4CCN3c3nnc(C4CCC4)o3)cc12` [Example 1830, (R)-2-(4-(4-chloropyrazolo[1,5-a]pyridin-2-yl)-6,7-dihydro-1H-imidazo[4,5-c]pyridin-5(4H)-yl)-5-cyclobutyl-1,3,4-oxadiazole] it was greater than 5 µM.

In the case of `Cc1cccn2nc([C@H]3c4nc[nH]c4CCN3C(=O)c3nc4ccccc4s3)cc12` [Example 2503, (R)-benzo[d]thiazol-2-yl(4-(4-methylpyrazolo[1,5-a]pyridin-2-yl)-1,4,6,7-tetrahydro-5H-imidazo[4,5-c]pyridin-5-yl)methanone], the AC50 is greater than 5 µM.

As for `c1ccc(N2CCc3[nH]cnc3[C@@H]2c2cc3ccccn3n2)cc1` [Example 2238, (R)-5-phenyl-4-(pyrazolo[1,5-a]pyridin-2-yl)-4,5,6,7-tetrahydro-1H-imidazo[4,5-c]pyridine], the concentration at half-maximal activity (AC50) was 1 to 5 µM. For the compound `CC(C)c1nnc(N2CCc3[nH]cnc3[C@@H]2c2cc3c(Cl)cccn3n2)o1` [Example 2324, (R)-2-(4-(4-chloropyrazolo[1,5-a]pyridin-2-yl)-1,4,6,7-tetrahydro-5H-imidazo[4,5-c]pyridin-5-yl)-5-isopropyl-1,3,4-oxadiazole], the AC50 was greater than 5 µM.

Consider `FC(F)(F)c1cccn2nc([C@@H]3c4nc[nH]c4CCN3c3nnc(C4CCC4)o3)cc12` [Example 2482, (S)-2-cyclobutyl-5-(4-(4-(trifluoromethyl)pyrazolo[1,5-a]pyridin-2-yl)-6,7-dihydro-1H-imidazo[4,5-c]pyridin-5(4H)-yl)-1,3,4-oxadiazole], for which the AC50 is 1 to 5 µM. Still for that read-out and setting: the value for `Cc1cccc2cc([C@H]3c4nc[nH]c4CCN3C(=O)c3nnc(-c4cn(C)cn4)o3)nn12` [Example 2394, (R)-(5-(1-methyl-1H-imidazol-4-yl)-1,3,4-oxadiazol-2-yl)(4-(7-methylpyrazolo[1,5-a]pyridin-2-yl)-6,7-dihydro-1H-imidazo[4,5-c]pyridin-5(4H)-yl)methanone] was greater than 5 µM; that for `FC(F)(F)c1ccc(N2CCc3[nH]cnc3[C@H]2c2cc3c(C(F)(F)F)cccn3n2)nc1` [Example 2013, (S)-4-(4-(trifluoromethyl)pyrazolo[1,5-a]pyridin-2-yl)-5-(5-(trifluoromethyl)pyridin-2-yl)-4,5,6,7-tetrahydro-1H-imidazo[4,5-c]pyridine] was less than 0.5 µM.

Still in this experiment, the particulars now being: A375 cells expressing human R408W PAH; 24 hrs compound incubation; 13C-Tyrosine by LC-MS; average where tested multiple times; read-out: AC50.
`Cc1cccn2nc([C@H]3c4nc[nH]c4CCN3C(=O)c3nnc(C4(C)CC4)o3)cc12` [Example 1322, (R)-(5-(1-methylcyclopropyl)-1,3,4-oxadiazol-2-yl)(4-(4-methylpyrazolo[1,5-a]pyridin-2-yl)-6,7-dihydro-1H-imidazo[4,5-c]pyridin-5(4H)-yl)methanone]: the AC50 lay in the range of 1 to 5 µM. `Cn1nccc1-c1nnc(C(=O)N2CCc3[nH]cnc3[C@@H]2c2cc3cccc(C(F)F)n3n2)o1` [Example 1609, (R)-(4-(7-(difluoromethyl)pyrazolo[1,5-a]pyridin-2-yl)-6,7-dihydro-1H-imidazo[4,5-c]pyridin-5(4H)-yl)(5-(1-methyl-1H-pyrazol-5-yl)-1,3,4-oxadiazol-2-yl)methanone]: the AC50 is greater than 5 µM. With `FC(F)c1cccn2nc([C@@H]3c4nc[nH]c4CCN3c3nnc(C(F)(F)F)o3)cc12` [Example 1767, (S)-2-(4-(4-(difluoromethyl)pyrazolo[1,5-a]pyridin-2-yl)-6,7-dihydro-1H-imidazo[4,5-c]pyridin-5(4H)-yl)-5-(trifluoromethyl)-1,3,4-oxadiazole], the AC50 is less than 0.5 µM.

As to `Cc1c(-c2nnc(C(=O)N3CCc4[nH]cnc4[C@@H]3c3cc4cccc(Cl)n4n3)o2)cnn1C` [Example 1209, (R)-(4-(7-chloropyrazolo[1,5-a]pyridin-2-yl)-6,7-dihydro-1H-imidazo[4,5-c]pyridin-5(4H)-yl)(5-(1,5-dimethyl-1H-pyrazol-4-yl)-1,3,4-oxadiazol-2-yl)methanone], the AC50 was greater than 5 µM. Same read-out and setting: the value for `COc1ccc2c(C(=O)N3CCc4[nH]cnc4[C@H]3c3cc4c(Cl)cccn4n3)cnn2c1` [Example 1698, (S)-(4-(4-chloropyrazolo[1,5-a]pyridin-2-yl)-6,7-dihydro-1H-imidazo[4,5-c]pyridin-5(4H)-yl)(6-methoxypyrazolo[1,5-a]pyridin-3-yl)methanone] was less than 0.5 µM; that for `Cc1cccn2nc([C@@H]3c4nc[nH]c4CCN3C(=O)c3nnc(C(C)(C)F)o3)cc12` [Example 922, (S)-(5-(2-fluoropropan-2-yl)-1,3,4-oxadiazol-2-yl)(4-(4-methylpyrazolo[1,5-a]pyridin-2-yl)-6,7-dihydro-1H-imidazo[4,5-c]pyridin-5(4H)-yl)methanone] was less than 0.5 µM; that for `Cc1c(-c2nnc(C(=O)N3CCc4[nH]cnc4[C@@H]3c3cc4c(Cl)cccn4n3)o2)cnn1C` [Example 1215, (R)-(4-(4-chloropyrazolo[1,5-a]pyridin-2-yl)-6,7-dihydro-1H-imidazo[4,5-c]pyridin-5(4H)-yl)(5-(1,5-dimethyl-1H-pyrazol-4-yl)-1,3,4-oxadiazol-2-yl)methanone] was greater than 5 µM. With `Cc1cccn2nc([C@@H]3c4nc[nH]c4CCN3c3nnc(-c4ccccn4)o3)cc12` [Example 1637, (S)-2-(4-(4-methylpyrazolo[1,5-a]pyridin-2-yl)-6,7-dihydro-1H-imidazo[4,5-c]pyridin-5(4H)-yl)-5-(pyridin-2-yl)-1,3,4-oxadiazole], the AC50 is less than 0.5 µM.

Turning to `O=C(c1nnc(-c2ccc(F)cc2F)o1)N1CCc2[nH]cnc2[C@@H]1c1cc2ccccn2n1` [Example 653, (R)-(5-(2,4-difluorophenyl)-1,3,4-oxadiazol-2-yl)(4-(pyrazolo[1,5-a]pyridin-2-yl)-6,7-dihydro-1H-imidazo[4,5-c]pyridin-5(4H)-yl)methanone], the AC50 is greater than 5 µM.

For `O=C(c1nnc(-c2ncccc2F)o1)N1CCc2[nH]cnc2[C@H]1c1cc2c(OC(F)F)cccn2n1` [Example 1657, (S)-(4-(4-(difluoromethoxy)pyrazolo[1,5-a]pyridin-2-yl)-6,7-dihydro-1H-imidazo[4,5-c]pyridin-5(4H)-yl)(5-(3-fluoropyridin-2-yl)-1,3,4-oxadiazol-2-yl)methanone], the AC50 was 0.5 to 1 µM.
